Reference: PMC12483202, “Pharmacokinetic profile of oral firocoxib in the koala (Phascolarctos cinereus)” (PLOS One, 2025)

Test: Single oral dose (5 mg/kg) pharmacokinetics of firocoxib in koalas, plasma HPLC, non-compartmental analysis;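 note: healthy adult koalas, three per sex, anaesthetised the day before dosing for cephalic vein catheterisation, with serial blood draws and firocoxib in plasma quantified by HPLC using fluorescence detection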
Conditions: for AUC(0-t): AUC0-t; for MRT inf: MRT0-inf; for k el: ke; for concentration at 1 h / concentration at 2 h / concentration at 4 h / concentration at 8 h: koala (Phascolarctos cinereus)
[1] = arithmetic mean, female koalas (n = 3), single oral 5 mg/kg
[2] = arithmetic mean, male koalas (n = 3), single oral 5 mg/kg
[3] = arithmetic mean, n = 6 koalas, single oral 5 mg/kg
[4] = both, plasma, po, 5 mg/kg, arithmetic mean, n = 6 koalas, single oral 5 mg/kg
[5] = both, plasma, po, 5 mg/kg, harmonic mean, n = 6 koalas, single oral 5 mg/kg
[6] = both, plasma, po, 5 mg/kg, median (range), n = 6 koalas, single oral 5 mg/kg
[7] = female, plasma, po, 5 mg/kg, Firocoxib plasma concentration, K4 female, single oral 5 mg/kg
[8] = female, plasma, po, 5 mg/kg, Firocoxib plasma concentration, K5 female, single oral 5 mg/kg
[9] = female, plasma, po, 5 mg/kg, Firocoxib plasma concentration, K6 female, single oral 5 mg/kg
[10] = female, koala, plasma, po, 5 mg/kg, Firocoxib plasma concentration, K4 female, single oral 5 mg/kg
[11] = female, koala, plasma, po, 5 mg/kg, Firocoxib plasma concentration, K5 female, single oral 5 mg/kg
[12] = female, koala, plasma, po, 5 mg/kg, Firocoxib plasma concentration, K6 female, single oral 5 mg/kg
[13] = female, plasma, po, 5 mg/kg, K4 female, single oral 5 mg/kg
[14] = female, plasma, po, 5 mg/kg, K5 female, single oral 5 mg/kg
[15] = female, plasma, po, 5 mg/kg, K6 female, single oral 5 mg/kg
[16] = female, plasma, po, 5 mg/kg, arithmetic mean, female koalas (n = 3), single oral 5 mg/kg
[17] = female, plasma, po, 5 mg/kg, harmonic mean, female koalas (n = 3), single oral 5 mg/kg

From the text: Six mature koalas (3 males, 3 females) with median (range) body weights and ages of 9.2 kg, (7.5 to 9.7 kg) and 4.8 years (4.3 to 9.1 years), respectively, were recruited from the Taronga Zoo colony (Mosman, NSW, Australia). These koalas were clinically normal based on regular physical examinations, haematological and biochemical analyte values. During the study, koalas were housed singly and supplied with various Eucalyptus spp. foliage and water ad-libitum. […] No animals were sacrificed; the animals were returned to the colony immediately after firocoxib administration and blood sampling. In order to minimise stress, intravenous catheterisation for sequential blood sampling was performed under general anaesthesia.
The day prior to drug administration and blood collection, the koalas were anaesthetised with alfaxalone (Alfaxan, Jurox, Pty Ltd, Rutherford, NSW, Australia) at 3 mg/kg administered intramuscularly (i.m.) and maintained under anaesthesia on isoflurane in 100% oxygen via a face mask for placement of a 20 gauge, 1 ¼ inch intravenous catheter into the cephalic vein. A short T-connector extension set (Codan, Santa Ana, CA, USA) and cap was attached to the catheter and flushed with saline. The extension tube, cap and catheter were secured with tape and bandage, for serial blood collection. Blood (5 mL) was collected at the time of anaesthesia in a lithium heparin tube to establish a baseline (t = 0 h).
Firocoxib was administered as a single oral dose of 5 mg/kg as crushed tablets made into a paste with Vetafarm Koala Crittacare (Wagga Wagga, NSW) and water.
Samples were centrifuged at 1500 x g for 10 minutes, within 1 h of collection; the plasma was immediately stored at –80 °C and protected from light until drug quantification. […] Clinical observations for the presence of adverse effects in the animals treated included measurement of vital signs, appetite, body weight, faecal consistency and overall behaviour and mobility.
Quantification of firocoxib and visualisation of metabolites in plasma was achieved by HPLC with fluorescence detection modified from a published method [12]. The HPLC system consisted of a Shimadzu LC-20AT solvent delivery unit, DGU-20A degasser, a SIL-20A HT auto injector, an SPD-20A UV detector and RF-10A XL fluorescence detector (Shimadzu, Rydalmere, NSW, Australia) and column oven (CTO-20A). […] Chromatographic separation was performed with a Supelco, Discovery C18, (25 cm x 4.6 mm, 5 µm) column (Merck KGaA, Darmstadt, Germany) with a 1-mm Opti-guard C18 pre-column (Choice Analytical, Thornleigh, NSW, Australia) at ambient temperature. […] Fluorescence detection excitation and emission wavelengths were 280 nm and 375 nm, respectively.
For sample preparation 200 μL of each of the following: plasma samples collected from koalas administered firocoxib, standards prepared for the standard curves and the QC samples; were extracted twice by mixing with 800 μL of ethyl acetate. The extracted organic portion (1.6 mL) was dried under vacuum in a Speed Vac Concentrator (Thermo Scientific, MA, USA) at 35 °C for 1 h, reconstituted with 100 μL of acetonitrile, and finally 10 μL of the reconstituted sample was injected into the HPLC system.
The concentration of each QC sample was repeated three times with the accuracy and precision calculated on each of the triplicates. The mean accuracy ± standard deviation (SD) were calculated using the formula [13]:
Firocoxib plasma concentrations from the initial oral administration underwent non-compartmental analysis. The peak concentration (Cmax) and the time reached (Tmax) were obtained directly from the measured concentrations. The elimination half-life (t1/2) was determined by ln2/ke where ke is the elimination rate constant which is the inverse slope of the elimination or terminal part of the semi-log curve.

AUC 0-t/AUC0-inf (K1 male, single oral 5 mg/kg): 0.72
AUMC 0-inf (K1 male, single oral 5 mg/kg): 56998 ng/mL*h^2
Cl/F (K1 male, single oral 5 mg/kg): 19.0 L/h
ka (absorption constant) (K1 male, single oral 5 mg/kg): 0.11 h⁻¹
AUC 0-t/AUC0-inf (K2 male, single oral 5 mg/kg): 0.99
AUMC 0-inf (K2 male, single oral 5 mg/kg): 11422 ng/mL*h^2
Cl/F (K2 male, single oral 5 mg/kg): 30.5 L/h
ka (absorption constant) (K2 male, single oral 5 mg/kg): 0.21 h⁻¹
AUC 0-t/AUC0-inf (K3 male, single oral 5 mg/kg): 0.99
AUMC 0-inf (K3 male, single oral 5 mg/kg): 13436.9 ng/mL*h^2
Cl/F (K3 male, single oral 5 mg/kg): 24.6 L/h
ka (absorption constant) (K3 male, single oral 5 mg/kg): 0.17 h⁻¹
AUC 0-t/AUC0-inf (K4 female, single oral 5 mg/kg): 0.98
AUMC 0-inf (K4 female, single oral 5 mg/kg): 8500.1 ng/mL*h^2
Cl/F (K4 female, single oral 5 mg/kg): 38.5 L/h
ka (absorption constant) (K4 female, single oral 5 mg/kg): 0.43 h⁻¹
AUC 0-t/AUC0-inf (K5 female, single oral 5 mg/kg): 0.94
AUMC 0-inf (K5 female, single oral 5 mg/kg): 11402.2 ng/mL*h^2
Cl/F (K5 female, single oral 5 mg/kg): 49.2 L/h
ka (absorption constant) (K5 female, single oral 5 mg/kg): 0.25 h⁻¹
AUC 0-t/AUC0-inf (K6 female, single oral 5 mg/kg): 0.83
AUMC 0-inf (K6 female, single oral 5 mg/kg): 14183.2 ng/mL*h^2
Cl/F (K6 female, single oral 5 mg/kg): 87.5 L/h
ka (absorption constant) (K6 female, single oral 5 mg/kg): 0.25 h⁻¹
AUC 0-t/AUC0-inf [1]: 0.92
AUMC 0-inf [1]: 11361.8 ng/mL*h^2
Cl/F [1]: 58.4 L/h
ka [1]: 0.28 h⁻¹
AUC 0-t/AUC0-inf [2]: 0.90
AUMC 0-inf [2]: 27285.7 ng/mL*h^2
Cl/F [2]: 24.7 L/h
ka [2]: 0.19 h⁻¹
AUMC [3]: 19323.8 ng/mL*h ^ 2
Cl/F [3]: 41.6 L/h
ka [3]: 0.24 h⁻¹
AUC(0-inf) (both, plasma, po, 5 mg/kg, AUC0-inf, arithmetic mean, n = 6 koalas, single oral 5 mg/kg): 1480 ng·h/mL
AUC(0-inf) (both, plasma, po, 5 mg/kg, AUC0-inf, harmonic mean, n = 6 koalas, single oral 5 mg/kg): 1080 ng·h/mL
AUC(0-inf) (both, plasma, po, 5 mg/kg, AUC0-inf, median (range), n = 6 koalas, single oral 5 mg/kg): 1260 ng·h/mL
AUC(0-t) [4]: 1310 ng·h/mL
AUC(0-t) [5]: 974 ng·h/mL
AUC(0-t) [6]: 1240 ng·h/mL
Cmax [4]: 141 ng/mL
Cmax [5]: 79.2 ng/mL
Cmax [6]: 140 ng/mL
MRT inf [4]: 12 h
MRT inf [5]: 10.7 h
MRT inf [6]: 12.2 h
Tmax [4]: 4.33 h
Tmax [5]: 3.69 h
Tmax [6]: 4 h
Tmax (both, plasma, po, 5 mg/kg, median value, both sexes, koala (6), PO 5 mg/kg): 4 h
Vd/F (both, plasma, po, 5 mg/kg, Vss/F, arithmetic mean, n = 6 koalas, single oral 5 mg/kg): 674 L
Vd/F (both, plasma, po, 5 mg/kg, Vss/F, harmonic mean, n = 6 koalas, single oral 5 mg/kg): 332 L
Vd/F (both, plasma, po, 5 mg/kg, Vss/F, median (range), n = 6 koalas, single oral 5 mg/kg): 811 L
Vd/F (both, plasma, po, 5 mg/kg, Vz/F, arithmetic mean, n = 6 koalas, single oral 5 mg/kg): 582 L
Vd/F (both, plasma, po, 5 mg/kg, Vz/F, harmonic mean, n = 6 koalas, single oral 5 mg/kg): 230 L
Vd/F (both, plasma, po, 5 mg/kg, Vz/F, median (range), n = 6 koalas, single oral 5 mg/kg): 240 L
k el [4]: 3.89e-05 s⁻¹
k el [5]: 2.78e-05 s⁻¹
k el [6]: 4.17e-05 s⁻¹
half-life (both, plasma, po, 5 mg/kg, t1/2, arithmetic mean, n = 6 koalas, single oral 5 mg/kg): 420 min
half-life (both, plasma, po, 5 mg/kg, t1/2, harmonic mean, n = 6 koalas, single oral 5 mg/kg): 301 min
half-life (both, plasma, po, 5 mg/kg, t1/2, median (range), n = 6 koalas, single oral 5 mg/kg): 328 min
MRT inf (female, in vivo, po, 5 mg/kg, K6 female, single oral 5 mg/kg): 26.4 h
concentration at 1 h [7]: 8.27 ng/mL
concentration at 2 h [7]: 24.3 ng/mL
concentration at 4 h [7]: 89.3 ng/mL
concentration at 8 h [7]: 74.7 ng/mL
concentration at 1 h [8]: 28.6 ng/mL
concentration at 2 h [8]: 61.9 ng/mL
concentration at 4 h [8]: 51.8 ng/mL
concentration at 8 h [8]: 45.8 ng/mL
concentration at 1 h [9]: 7.89 ng/mL
concentration at 2 h [9]: 12.3 ng/mL
concentration at 4 h [9]: 28.9 ng/mL
concentration at 8 h [9]: 17.5 ng/mL
concentration at 0.25 h [10]: 0.78 ng/mL
concentration at 0.5 h [10]: 1.23 ng/mL
concentration at 12 h [10]: 40.2 ng/mL
concentration at 24 h [10]: 3.7 ng/mL
concentration at 0.25 h [11]: 3.74 ng/mL
concentration at 0.5 h [11]: 5.88 ng/mL
concentration at 12 h [11]: 23.3 ng/mL
concentration at 24 h [11]: 12.8 ng/mL
concentration at 36 h [11]: 3.83 ng/mL
concentration at 0.25 h [12]: 3.58 ng/mL
concentration at 0.5 h [12]: 10.6 ng/mL
concentration at 12 h [12]: 13.2 ng/mL
concentration at 24 h [12]: 3.78 ng/mL
concentration at 36 h [12]: 7.02 ng/mL
concentration at 48 h (female, koala, plasma, po, 5 mg/kg, Firocoxib plasma concentration, K6 female, 48 h, single oral 5 mg/kg): 3.83 ng/mL
AUC(0-inf) (female, plasma, po, 5 mg/kg, AUC0-inf, K4 female, single oral 5 mg/kg): 973 ng·h/mL
AUC(0-inf) (female, plasma, po, 5 mg/kg, AUC0-inf, K5 female, single oral 5 mg/kg): 868 ng·h/mL
AUC(0-inf) (female, plasma, po, 5 mg/kg, AUC0-inf, K6 female, single oral 5 mg/kg): 537 ng·h/mL
AUC(0-inf) (female, plasma, po, 5 mg/kg, AUC 0-inf, arithmetic mean, female koalas (n = 3), single oral 5 mg/kg): 793 ng·h/mL
AUC(0-inf) (female, plasma, po, 5 mg/kg, AUC 0-inf, harmonic mean, female koalas (n = 3), single oral 5 mg/kg): 742 ng·h/mL
AUC(0-t) [13]: 954 ng·h/mL
AUC(0-t) [14]: 820 ng·h/mL
AUC(0-t) [15]: 444 ng·h/mL
AUC(0-t) [16]: 739 ng·h/mL
AUC(0-t) [17]: 664 ng·h/mL
Cmax [13]: 89.3 ng/mL
Cmax [14]: 61.9 ng/mL
Cmax [15]: 28.9 ng/mL
Cmax [16]: 60.3 ng/mL
Cmax [17]: 48.4 ng/mL
Structure (SMILES): CC1(C)OC(=O)C(OCC2CC2)=C1c1ccc(S(C)(=O)=O)cc1 [firocoxib]
